Values quoted from earlier work as cited in patent publication US5783700A, “Quinolic acid derivatives” (priority 1997, dated 1998).

How the values were obtained:
[^3 H]-MK 801 binding = cited from earlier work
[1] = test system: NMDA receptor glycine binding; conditions: cited from earlier work
[2] = test system: recognition site presumed to be located within the ion channel of the receptor complex; conditions: cited from earlier work
[3] = target: glycine binding site on the NMDA receptor; conditions: [^3 H]-labeled ligand; cited from earlier work

Structure (SMILES) | effect at 1 uM on [^3 H]-MK 801 binding ([^3 H]-MK 801 binding; 1 uM) | IC50 ([^3 H]-MK 801 binding; [^3 H]-MK 801, depending on brain region, read-out: IC50 (inhibition concentration)) | inhibition of glycine binding [1] | effect on binding of phencyclidine-like compounds [2] | Kd [3]
O=C(O)c1cc(O)c2ccc(Cl)cc2n1 [7-chlorokynurenic acid] | little effect | 30 to 40 µM | competitive inhibitor of glycine binding | decrease binding | –
O=C(O)c1cc(O)c2c(Cl)cc(Cl)cc2n1 [[^3 H]-5,7-dichlorokynurenic acid] | – | – | – | – | 0.029 µM
